Literature values, collected in patent US20040208853A1, “Method and device for sanitation using bacteriophages” (priority 2000, published 2004).

System: bacterial counts on fresh-cut fruits
Conditions: most effective chemical sanitizer

OO [hydrogen peroxide]
maximum reduction rate in bacterial counts on fresh-cut fruits: 1.3 logs
